Patent US20220304992A1, “METHODS OF REJUVENATING AGED TISSUE BY INHIBITING 15-HYDROXYPROSTAGLANDIN DEHYDROGENASE (15-PGDH)” (The Board of Trustees of the Leland Stanford Junior …, priority 2019, published 2022)
“Also recorded” adds a separate entry of the source.

Legend:
Assay type in all cases: in vivo, mouse
[1] = system: EP4 receptor on aged myofibers; assay: SW treatment of aged EP4f/f mice with MCK-Cre ablation of EP4 in myofibers; conditions: loss of EP4 expression in myofibers, SW one month
Excerpt: (§1) We performed all experiments and protocols in compliance with the institutional guidelines of Stanford University and Administrative Panel on Laboratory Animal Care (APLAC). Middle aged (18-20 mo.) and aged (>24 mo.) mice C57BL/6 were obtained the US National Institute on Aging (NIA) for aged muscle studies, and young (2-4 mo.) wild-type C57BL/6 mice from Jackson Laboratory. INK-ATTAC mice were generated as previously described (1). INK-ATTAC healthspan assessments. INK-ATTAC mice were crossed onto the C57BL6/J genetic background and maintained in specific-pathogen free housing on a 12-hour dark/light cycle for study duration. At 12 months of age, male mice were either utilized for baseline healthspan assessments and terminal muscle harvest or randomized to receive twice-weekly vehicle or AP20187 (2 mg/kg intraperitoneal injection; B/B homodimerizer, Clontech) until assessment and sacrifice at 28 months of age (2). […] Time and distance to exhaustion was performed as previously described (4) for SW-treated mice and their controls. […]
The peak isometric torque (N·mm) of the ankle plantarflexors was assessed as previously described (21, 22). […]

[2] = system: aged mice; assay: Muscle mass, plantar flexion tetanic force and treadmill endurance in aged and young C57BL/6 mice; conditions: aged (>24 mo) mice, daily i.p. 5 mg/kg, 1 month, 5 mg/kg
Excerpt: (§2) We performed all experiments and protocols in compliance with the institutional guidelines of Stanford University and Administrative Panel on Laboratory Animal Care (APLAC). Mid (18 mo.) and aged (>24 mo.) mice C57BL/6 were obtained the US National Institute on Aging (NIA) for aged muscle studies, and young (2-4 mo.) wild-type C57BL/6 mice from Jackson Laboratory. Mice were maintained in specific-pathogen free housing on a 12-hour dark/light cycle for study duration.
(§3) Time and distance to exhaustion was performed as previously described (4) for SW-treated mice and their controls (FIG. 3A).
(§4) The peak isometric torque (N·mm) of the ankle plantarflexors was assessed as previously described (8,9). Briefly, the foot of anesthetized mice was placed on a footplate attached to a servomotor (model 300C-LR; Aurora Scientific). Two Pt-Ir electrode needles (Aurora Scientific) were inserted percutaneously were inserted subcutaneously over the tibial nerve, just posterior/posterior-medial to the knee. The ankle joint was secured at a 90° angle. The peak isometric torque was achieved by varying the current delivered to the tibial nerve at a frequency of 200 Hz and a 0.1-ms square wave pulse. We performed three tetanic measurements on each muscle, with 1 min recovery between each measurement. Data were collected with the Aurora Scientific Dynamic Muscle Data Acquisition and Analysis Software.
as §1
as §4, with “described (21, 22).” for “described (8,9).”, “percutaneously and” for “percutaneously were inserted”, “a 0.1—ms” for “a 0.1-ms”

[3] = as above; conditions: young mice, daily i.p., 1 month
Excerpt: as §2, §3, §4, §1
as §4, with “described (21, 22).” for “described (8,9).”, “percutaneously and” for “percutaneously were inserted”, “a 0.1—ms” for “a 0.1-ms”

Question: Which results are given for `CCCC[S+]([O-])c1sc2nc(-c3cccs3)cc(-c3ccccc3)c2c1N` (stereo not shown) [SW033291, 2-(butylsulfinyl)-4-phenyl-6-(thiophen-2-yl)thieno[2,3-b]pyridin-3-amine]?
Answer: beneficial effect on muscle mass [1]: abrogated; beneficial effect on muscle strength [1]: abrogated; endurance (time to exhaustion on a treadmill) [2]: increases; also recorded: significant increase; muscle mass (weight of dissected GA, TA, soleus) [2]: increases; also recorded: significant increase; muscle strength (plantar flexion tetanic force) [2]: increases; also recorded: significant increase; endurance (time to exhaustion on a treadmill) ([2]; listed as SW): increased; muscle mass (weight of dissected GA, TA, soleus) ([2]; listed as SW): significant increase; muscle strength (plantar flexion tetanic force) ([2]; listed as SW): significant increase; absolute strength [3]: not statistically significant; muscle mass [3]: not statistically significant
